Where “and” joins values, the source holds several entries; their conditions need not be identical. Equal entries are not always repeated. Where two headings read alike, the source gives them in different places.
Legend:
Streptococcus pneumoniae = experiment: MIC, Streptococcus pneumoniae; type: cell-based; details: Streptococcus pneumoniae; for MIC: read-out: MIC
Source text: Bacterial isolates were subjected to broth microdilution susceptibility testing, performed according to Clinical and Laboratory Standards Institute (CLSI) methods ([46]), using panels prepared in-house. Meropenem was purchased from Sandoz, and all other antibiotics were from Sigma-Aldrich. Xeruborbactam was synthesized at Qpex Biopharma, San Diego, CA. Avibactam was purchased from eNovation Chemicals LLC, Bridgewater, NJ, USA; zidebactam was from MedKoo Biosciences, Inc., Morrisville, NC, and nacubactam was from Advanced ChemBlocks, Hayward, CA. Durlobactam was synthesized at Acme Bioscience, Palo Alto, CA, USA.

Klebsiella pneumoniae = experiment: microbe, parasite or virus in culture; type: cell-based; details: for MIC90: read-out: MIC90
How it was run: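 MICs by CLSI broth microdilution in in-house panels. Strains tested were engineered strains carrying porin and efflux mutation combinations, KPC-producing clinical isolates and derivatives cured of KPC plasmids, and KPC-producing clinical isolates enriched for porin mutations.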

[1] = Klebsiella pneumoniae, 575 isolates
[2] = Klebsiella pneumoniae, K. pneumoniae CRE, 418 isolates
[3] = Klebsiella pneumoniae, K. pneumoniae CRE, KPC, 163 isolates
[4] = Klebsiella pneumoniae, K. pneumoniae CRE, OXA-48-like, 89 isolates
[5] = Klebsiella pneumoniae, K. pneumoniae CRE, metallo-beta-lactamase, 126 isolates
[6] = Klebsiella pneumoniae, K. pneumoniae CRE, non-carbapenemase producing, 40 isolates
[7] = Klebsiella pneumoniae, K. pneumoniae ESBL phenotype, 157 isolates
[8] = Klebsiella pneumoniae, KPC-producing clinical strains with functional OmpK36, alone
[9] = Klebsiella pneumoniae, KPC-producing clinical strains with nonfunctional OmpK36, alone
[10] = Klebsiella pneumoniae, KPC-producing clinical strains, all strains (n = 141), alone

O=C(O)c1c(F)ccc2c1OB(O)[C@@H]1C[C@H]21 [Xeruborbactam]
72 µM: MIC (Klebsiella pneumoniae; Klebsiella pneumoniae KPM1001 (ATCC 49816), read-out: MIC)
32 µg/mL: MIC (Streptococcus pneumoniae; sp006) | MIC (Streptococcus pneumoniae; sp008) | MIC (Streptococcus pneumoniae; sp009) | MIC (Streptococcus pneumoniae; sp119) | MIC (Streptococcus pneumoniae; sp120) | MIC (Streptococcus pneumoniae; sp121) | MIC (Streptococcus pneumoniae; sp125) | MIC50 (Streptococcus pneumoniae; S. pneumoniae strains, n = 18) | MIC90 (Klebsiella pneumoniae; [1]) | MIC90 (Klebsiella pneumoniae; [2]) | MIC90 (Klebsiella pneumoniae; [3]) | MIC90 (Klebsiella pneumoniae; [5]) | MIC90 (Klebsiella pneumoniae; [6]) | MIC (Klebsiella pneumoniae; Klebsiella pneumoniae, KPM2631 (KPC-3; ompK36_fs ΔompK35), alone) | MIC (Klebsiella pneumoniae; Klebsiella pneumoniae, KPM3532 (TolQ::M189K), alone) | MIC (Klebsiella pneumoniae; Klebsiella pneumoniae, KPM3532, TolQ::M189K) | MIC (Klebsiella pneumoniae; Klebsiella pneumoniae, KPM3534 (TolQ::S31F), alone) | MIC (Klebsiella pneumoniae; Klebsiella pneumoniae, KPM3534, TolQ::S31F) | MIC (Klebsiella pneumoniae; Klebsiella pneumoniae, KPM4127 (KPM3532 TolQ::M189K/KPC-3), alone) | MIC (Klebsiella pneumoniae; Klebsiella pneumoniae, KPM4128 (KPM3534 TolQ::S31F/KPC-3), alone) | MIC (Klebsiella pneumoniae; Klebsiella pneumoniae, KPM4129 (KPM3532 TolQ::M189K/NDM-1), alone) | MIC (Klebsiella pneumoniae; Klebsiella pneumoniae, KPM4130 (KPM3534 TolQ::S31F/NDM-1), alone) | MIC (Klebsiella pneumoniae; Klebsiella pneumoniae, KPM4235, TolQ::IP(183–1844)PR) | MIC (Klebsiella pneumoniae; Klebsiella pneumoniae, KPM4236, TolQ::TAA at aa 103) | MIC (Klebsiella pneumoniae; Klebsiella pneumoniae, KPM4238, TolQ::S25F) | MIC (Klebsiella pneumoniae; Klebsiella pneumoniae, KPM4239, TolQ::S28F) | MIC (Klebsiella pneumoniae; Klebsiella pneumoniae, KPM4240, TolQ::S25Y) | MIC (Klebsiella pneumoniae; Klebsiella pneumoniae, clinical isolate KP1074, OmpK35 NF, OmpK36 PFN (GD), read-out: MIC) | MIC (Klebsiella pneumoniae; Klebsiella pneumoniae, clinical isolate KP1093, OmpK35 NF, OmpK36 PFN (GD), read-out: MIC) | MIC (Klebsiella pneumoniae; Klebsiella pneumoniae, strain KPM1026a measured at 30°C (Fig. 6), read-out: MIC)
~ 95%: isolates with MIC values in an 8- to 16-μg/mL range (Klebsiella pneumoniae; 228 isolates with the full-length OmpK36)
64 µg/mL: MIC90 (Klebsiella pneumoniae; [4]) | MIC (Klebsiella pneumoniae; Klebsiella pneumoniae, KPM1273 (KPC-3; ramR_fs ompK36_1171), alone, read-out: MIC) | MIC (Klebsiella pneumoniae; Klebsiella pneumoniae, Klebsiella pneumoniae isolates, read-out: highest MIC observed) | MIC (Klebsiella pneumoniae; Klebsiella pneumoniae, clinical isolate KP1463, OmpK35 NF, OmpK36 NF, read-out: MIC) | MIC (Klebsiella pneumoniae; Klebsiella pneumoniae, clinical isolate KP1469, OmpK35 NF, OmpK36 NF, read-out: MIC) | MIC (Klebsiella pneumoniae; Klebsiella pneumoniae, clinical isolate KP1598, OmpK35 NF, OmpK36 PFN (GD), read-out: MIC) | MIC (Klebsiella pneumoniae; Klebsiella pneumoniae, strain KPM1171, lacks porins and overexpresses AcrAB) | MIC (Klebsiella pneumoniae; Klebsiella pneumoniae, strain KPM1171, ramR ompK36_1171, read-out: MIC)
4 to 32 µg/mL: MIC range (Klebsiella pneumoniae; K. pneumoniae ESBL phenotype, 157 isolates)
72 µM and 16 µg/mL: MIC (Klebsiella pneumoniae; Klebsiella pneumoniae, ATCC49816, Klebsiella pneumoniae KPM1001 (ATCC 49816), read-out: MIC)
> 16 µg/mL: MIC90 (Klebsiella pneumoniae; [8]) | MIC50 (Klebsiella pneumoniae; [9]) | MIC90 (Klebsiella pneumoniae; [9]) | MIC50 (Klebsiella pneumoniae; [10]) | MIC90 (Klebsiella pneumoniae; [10])
16 µg/mL: MIC (Streptococcus pneumoniae; sp005) | MIC (Streptococcus pneumoniae; sp007) | MIC (Klebsiella pneumoniae; Klebsiella pneumoniae KPM1001 (ATCC 49816)) | MIC50 (Klebsiella pneumoniae; [1]) | MIC50 (Klebsiella pneumoniae; [2]) | MIC50 (Klebsiella pneumoniae; [3]) | MIC50 (Klebsiella pneumoniae; [4]) | MIC50 (Klebsiella pneumoniae; [5]) | MIC50 (Klebsiella pneumoniae; [6]) | MIC50 (Klebsiella pneumoniae; [7]) | MIC90 (Klebsiella pneumoniae; [7]) | MIC50 (Klebsiella pneumoniae; [8]) | MIC (Klebsiella pneumoniae; Klebsiella pneumoniae, KPM1026a (no beta-lactamase), xeruborbactam 0 µg/ml, read-out: MIC) | MIC (Klebsiella pneumoniae; Klebsiella pneumoniae, KPM1026a, alone, read-out: MIC) | MIC (Klebsiella pneumoniae; Klebsiella pneumoniae, KPM1026a, parent, read-out: MIC) | MIC (Klebsiella pneumoniae; Klebsiella pneumoniae, KPM1271 (KPC-3; wild type), alone, read-out: MIC) | MIC (Klebsiella pneumoniae; Klebsiella pneumoniae, KPM1271 (KPM1026a/KPC-3), alone, read-out: MIC) | MIC (Klebsiella pneumoniae; Klebsiella pneumoniae, KPM1272 (KPC-3; ramR_fs), alone, read-out: MIC) | MIC (Klebsiella pneumoniae; Klebsiella pneumoniae, KPM1281 (KPM1026a/NDM-1), alone, read-out: MIC) | MIC (Klebsiella pneumoniae; Klebsiella pneumoniae, KPM2067 (KPC-3; ompK36_fs), alone, read-out: MIC) | MIC (Klebsiella pneumoniae; Klebsiella pneumoniae, KPM2601 (KPC-3; ΔompK35), alone) | MIC (Klebsiella pneumoniae; Klebsiella pneumoniae, clinical isolate KP1004, OmpK35 NF, OmpK36 FN, read-out: MIC) | MIC (Klebsiella pneumoniae; Klebsiella pneumoniae, clinical isolate KP1251, OmpK35 NF, OmpK36 FN, read-out: MIC) | MIC (Klebsiella pneumoniae; Klebsiella pneumoniae, strain KPM1026a, wild type, read-out: MIC) | MIC (Klebsiella pneumoniae; Klebsiella pneumoniae, strain KPM1026a, read-out: MIC) | MIC (Klebsiella pneumoniae; Klebsiella pneumoniae, strain KPM1027, ramR, read-out: MIC) | MIC (Klebsiella pneumoniae; Klebsiella pneumoniae, strain KPM2040, ompK36_2040, read-out: MIC) | MIC (Klebsiella pneumoniae; Klebsiella pneumoniae, strain KPM2600, ΔompK35)
16 to 32 µg/mL: MIC (Klebsiella pneumoniae; Klebsiella pneumoniae, BAA2814, KPC-3-producing KP1074 (BAA-2814), xeruborbactam none, read-out: MIC) | MIC (Klebsiella pneumoniae; Klebsiella pneumoniae, KPM1211 (KP1074 after loss of pKpQIL), read-out: MIC)
5.3%: percentage of strains with xeruborbactam MIC values ≥32 µg/ml (Klebsiella pneumoniae; K. pneumoniae clinical isolates, OmpK36 full length (n=228))
8 µg/mL: MIC (Streptococcus pneumoniae; sp001) | MIC (Klebsiella pneumoniae; Klebsiella pneumoniae, clinical isolate KP1070, OmpK35 NF, OmpK36 FN, read-out: MIC) | MIC (Klebsiella pneumoniae; Klebsiella pneumoniae, clinical isolate KP1274, OmpK35 FN, OmpK36 FN, read-out: MIC)
> 32 µg/mL: MIC (Streptococcus pneumoniae; sp004) | MIC (Streptococcus pneumoniae; sp117) | MIC (Streptococcus pneumoniae; sp118) | MIC (Streptococcus pneumoniae; sp122) | MIC (Streptococcus pneumoniae; sp123) | MIC (Streptococcus pneumoniae; sp126) | MIC90 (Streptococcus pneumoniae; S. pneumoniae strains, n = 18)
4 µg/mL: MIC (Streptococcus pneumoniae; sp002) | MIC (Streptococcus pneumoniae; sp003)

From publication PMC9578396, “Intrinsic Antibacterial Activity of Xeruborbactam In Vitro: Assessing Spectrum and Mode of Action” (Antimicrobial Agents and Chemotherapy, 2022)
